Results as given in PMC12250302, “Synthesis, Antimicrobial Activities, and Model of Action of Novel Tetralone Derivatives Containing Aminoguanidinium Moiety” (International Journal of Molecular Sciences, 2025).
≈ marks a conversion by molar mass, not a printed value.

Experiments:
MRSA-2 biofilm = assay: Biofilm formation inhibition assay (crystal violet); type: cell-based, Staphylococcus aureus; conditions: MRSA-2
Description: The effect of 2D on the biofilm formation of MRSA was evaluated. MRSA-2 was cultured in MH broth for a period of 3–5 h, after which it was diluted to a density of 1 × 10^6 CFU/mL with MH broth. […] After the removal of the suspended bacteria, the well plates were washed thrice with PBS. Then, 150 μL of methanol was added and fixed for 30 min. Subsequent to air-drying, 150 μL of a 0.1% crystal violet aqueous solution was added. Following a 15 min staining period, the excess crystal violet was removed by rinsing with flowing water. Finally, 150 μL of anhydrous ethanol was added and the mixture was incubated for 20 min. The optical density at 575 nm was detected.

sheep red blood cells = assay: Hemolytic activity; type: cell-based
Description: The hemolysis of compound 2D was determined by its ability to lyse sheep red blood cells. The results were expressed as the HC50 value (the concentration at which 50% of red blood cells were lysed).
The sterile defibrillated sheep blood cells were centrifuged (5000 rpm, 5 min) and then washed three times with 0.9% saline. Subsequently, 1 μL of different concentrations of 2D (0.5–128 μg/mL) was mixed with 999 μL of red blood cell suspension. After incubation at 37 °C for 1 h, the mixed solution was centrifuged. The absorbance of the supernatant at 570 nm was measured. Triton X-100 (0.1%) was used as a positive control, and DMSO was used as a negative control. The hemolysis rate was calculated according to the following formula:Hemolysis rate (%) = (ODTreatment − ODNegative)/(ODPositive − ODNegative) × 100%(1)

E. faecium ATCC 35667 = assay: MIC and MBC testing, broth microdilution; type: cell-based, Enterococcus faecium; conditions: Enterococcus faecium, ATCC35667, E. faecium ATCC 35667
Outline: (§1)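 Controls comprised levofloxacin (positive) and 0.1% DMSO (negative). Compounds, serially halved in MH broth, met log-phase cells pre-diluted to 1 × 10^6 CFU/mL; after an 18 h, 37 °C incubation, absence of visible growth defined the MIC, triplicate per concentration.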

MRSA-2 [1] = assay: Bactericidal time-kill kinetics assay; type: cell-based, Staphylococcus aureus; conditions: 2, 4 and 8 µg/mL, 0-24 h
Description: (§2) S. aureus (ATCC 29213) and MRSA-2 were cultivated in MH broth until the logarithmic growth phase and then diluted to 1 × 10^7 CFU/mL, respectively. […] After a specified time interval (0, 1, 2, 4, 8, 12, and 24 h), the culture suspension was serially diluted in 0.9% saline over a concentration range from 10^−1 to 10^−9. A volume of 100 μL of the obtained diluent and culture solution was dispensed onto a sterile MH agar plate. The plate was subsequently cultured at 37 °C for a duration of 24 h. The total number of colonies was enumerated and expressed as log10(CFU/mL).

S. aureus (ATCC 29213) [2] = assay: Bactericidal time-kill kinetics assay; type: cell-based, Staphylococcus aureus; conditions: 2, 4 and 8 µg/mL, 0-24 h
Description: as §2

[3] = test system: K. pneumoniae ATCC 700603; assay: MIC and MBC testing, broth microdilution; type: cell-based, Klebsiella pneumoniae; conditions: Klebsiella pneumoniae
Outline: as §1

MRSA-2 [4] = assay: Bacterial DNA and protein leakage experiment; type: cell-based, Staphylococcus aureus; conditions: compared with the control group; 4 h
Description: MRSA-2 was cultured to logarithmic growth phase. The bacterial precipitate was collected, washed twice with PBS (pH = 7.2–7.4), and resuspended in PBS to 1 × 10^7 CFU/mL. […] After centrifugation of 1 mL of the suspension, the supernatant was collected. The protein level was measured by BCA protein concentration kits (Servicebio, Hubei, China), and the DNA level was detected by microspectrophotometer.

MRSA-2 [5] = assay: Growth curve (OD600); type: cell-based, Staphylococcus aureus; conditions: 2D 0.5, 1, 2, 4, 8 µg/mL, vancomycin 0.5 and 1 μg/mL
Description: (§3) The growth inhibition and time-dependent killing abilities of 2D were evaluated against S. aureus (ATCC 29213) and MRSA-2. After culturing the strains in MH broth until the logarithmic growth phase, they were diluted with MH broth to 1 × 10^6 CFU/mL. […] OD600 values were measured at predetermined time intervals (0, 1, 2, 4, 6, 8, 10, 12, and 24 h).

S. aureus (ATCC 29213) [6] = assay: Growth curve (OD600); type: cell-based, Staphylococcus aureus; conditions: 2D 0.5, 1, 2, 4, 8 µg/mL, vancomycin 0.5 and 1 μg/mL
Description: as §3

For `[H]/N=C(\N)NN=C1CCCc2cc(OCCCCCCC)ccc21` [Compound 2D, (E)-2-(6-(heptyloxy)-3,4-dihydronaphthalen-1(2H)-ylidene)hydrazine-1-carboximidamide], the “reduction of biofilm formation” value (MRSA-2 biofilm; 1 μg/mL (1MIC), 24 h) was “more than 92%”, the “inhibition of biofilm formation” value (MRSA-2 biofilm; 2–32 μg/mL (2-32MIC)) was “almost completely inhibited the formation of biofilm” and the inhibition at 0.25 µg/mL (MRSA-2 biofilm; Staphylococcus aureus, 0.25 μg/mL (1/4MIC), 24 h, read-out: inhibition rate of biofilm formation) was about 18.5%. The inhibition at 0.5 µg/mL (MRSA-2 biofilm; Staphylococcus aureus, 0.5 μg/mL (1/2MIC), 24 h, read-out: inhibition rate of biofilm formation) was about 37.8%, the “Selectivity index (SI)” value (sheep red blood cells; SI = HC50/MIC ATCC 29213) was 101.30 and the HC50 (sheep red blood cells; sheep red blood cells, 37 °C, 1 h) was 50.65 µg/mL. The MIC (E. faecium ATCC 35667; 18 h, read-out: MIC) was 2 mg/L (≈ 6.32 µM), the MBC (E. faecium ATCC 35667; read-out: MBC) was 4 mg/L (≈ 12.6 µM) and the time-kill response (MRSA-2 [1]) was “concentration-dependent and time-dependent bactericidal response”. For the same compound, the time-kill response (S. aureus (ATCC 29213) [2]) was “concentration-dependent and time-dependent bactericidal response”, the MIC ([3]; ATCC700603, 18 h, read-out: MIC) was 16 mg/L (≈ 50.6 µM) and the MBC ([3]; ATCC700603, read-out: MBC) was 32 mg/L (≈ 101 µM). For the same compound, the “content of extracellular DNA” value (MRSA-2 [4]) was “significantly increased”, the “content of extracellular protein” value (MRSA-2 [4]) was “significantly increased” and the “growth inhibition (growth curve)” value (MRSA-2 [5]) was “able to suppress the growth”. For the same compound, the “growth inhibition (growth curve)” value (S. aureus (ATCC 29213) [6]) was “able to suppress the growth”.
